This note sets out measurements from patent publication US20260207602A1, “EGFR INHIBITORS” (Blueprint Medicines Corporation, priority 2022, published 2026).

The target in assay [1] is T1, EGFR L858R (Homo sapiens, UniProt P00533, L858R).
T1 construct: purchased SignalChem E10-122BG
Briefly: Biochemical EGFR inhibition assay (Caliper mobility shift), EGFR L858R. The note with it: biochemical Caliper mobility shift assay, EGFR L858R enzyme; read-out: Enz EGFR L858R IC50. An outline of the steps:
(§1)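 Apparent IC50 values come from Caliper electrophoretic separation of phosphorylated and unphosphorylated 5-FAM peptide (2.5 μM). ATP was either 1.0 mM or at Km; HEPES pH 7.5 buffer with MgCl2, DTT, 1% DMSO. Reactions ran at 25 °C until 10–20% phosphorylated, then EDTA quench.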

The target in assay [2] is T2, EGFR (d746-750) (Homo sapiens, UniProt P00533, DEL746-750).
T2 construct: purchased SignalChem E10-122JG
The experiment in a line: Biochemical EGFR inhibition assay (Caliper mobility shift), EGFR (d746-750). The following applies: biochemical Caliper mobility shift assay, EGFR Exon 19-del enzyme; read-out: Enz EGFR Exon 19-del IC50. An outline of the steps: as §1

For assay [3], the target named is intracellular phosphorylation of EGFR (Tyr1068) in PC-9 cells (Homo sapiens, UniProt P00533, DEL746-750). Briefly: PC-9 pEGFR AlphaLISA assay. In kind it is cell-based. The note with it: 4 hours incubation, read-out: Phos EGFR PC9 IC50. An outline of the steps: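 PC-9 cells (EGFR del746-750) in phenol-free DMEM/10% FBS, adhered overnight, then exposed to 10-point 4-fold compound dilutions for 4 h at 37 °C. Lysates assayed for pEGFR Tyr1068 by AlphaLISA SureFire Ultra; IC50 from percent pEGFR inhibition vs log concentration.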
Sequence of intracellular phosphorylation of EGFR (Tyr1068) in PC-9 cells (P00533 with tags, fused parts or gaps DEL746-750): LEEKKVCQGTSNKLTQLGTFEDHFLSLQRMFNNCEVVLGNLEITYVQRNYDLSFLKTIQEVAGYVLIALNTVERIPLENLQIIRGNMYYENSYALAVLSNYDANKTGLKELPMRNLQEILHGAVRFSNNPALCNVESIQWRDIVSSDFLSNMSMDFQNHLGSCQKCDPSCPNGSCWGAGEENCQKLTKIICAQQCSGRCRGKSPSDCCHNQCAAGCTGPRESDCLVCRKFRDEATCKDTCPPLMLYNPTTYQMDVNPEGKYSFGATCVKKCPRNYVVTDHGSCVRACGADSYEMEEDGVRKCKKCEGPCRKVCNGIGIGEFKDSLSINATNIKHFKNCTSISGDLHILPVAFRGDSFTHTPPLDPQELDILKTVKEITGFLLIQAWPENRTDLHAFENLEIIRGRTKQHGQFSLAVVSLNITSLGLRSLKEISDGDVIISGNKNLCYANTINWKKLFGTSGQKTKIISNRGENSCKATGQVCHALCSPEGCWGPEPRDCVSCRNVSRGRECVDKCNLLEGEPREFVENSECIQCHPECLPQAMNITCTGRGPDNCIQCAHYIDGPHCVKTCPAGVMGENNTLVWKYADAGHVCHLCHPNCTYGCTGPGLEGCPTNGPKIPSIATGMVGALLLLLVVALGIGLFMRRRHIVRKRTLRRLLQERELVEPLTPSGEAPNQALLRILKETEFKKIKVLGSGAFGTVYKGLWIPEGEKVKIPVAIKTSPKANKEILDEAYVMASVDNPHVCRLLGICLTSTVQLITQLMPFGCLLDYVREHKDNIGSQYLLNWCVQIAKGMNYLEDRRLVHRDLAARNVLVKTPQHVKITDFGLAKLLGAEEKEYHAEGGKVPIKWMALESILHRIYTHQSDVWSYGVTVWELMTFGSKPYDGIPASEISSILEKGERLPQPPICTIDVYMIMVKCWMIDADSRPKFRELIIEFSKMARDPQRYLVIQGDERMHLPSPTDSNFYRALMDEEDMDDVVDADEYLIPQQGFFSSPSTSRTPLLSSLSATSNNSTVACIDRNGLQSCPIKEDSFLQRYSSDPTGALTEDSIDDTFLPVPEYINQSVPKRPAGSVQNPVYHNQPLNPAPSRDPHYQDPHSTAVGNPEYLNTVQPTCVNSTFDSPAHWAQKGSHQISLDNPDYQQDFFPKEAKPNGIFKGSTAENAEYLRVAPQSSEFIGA

T1 sequence (P00533 25-1210 L858R): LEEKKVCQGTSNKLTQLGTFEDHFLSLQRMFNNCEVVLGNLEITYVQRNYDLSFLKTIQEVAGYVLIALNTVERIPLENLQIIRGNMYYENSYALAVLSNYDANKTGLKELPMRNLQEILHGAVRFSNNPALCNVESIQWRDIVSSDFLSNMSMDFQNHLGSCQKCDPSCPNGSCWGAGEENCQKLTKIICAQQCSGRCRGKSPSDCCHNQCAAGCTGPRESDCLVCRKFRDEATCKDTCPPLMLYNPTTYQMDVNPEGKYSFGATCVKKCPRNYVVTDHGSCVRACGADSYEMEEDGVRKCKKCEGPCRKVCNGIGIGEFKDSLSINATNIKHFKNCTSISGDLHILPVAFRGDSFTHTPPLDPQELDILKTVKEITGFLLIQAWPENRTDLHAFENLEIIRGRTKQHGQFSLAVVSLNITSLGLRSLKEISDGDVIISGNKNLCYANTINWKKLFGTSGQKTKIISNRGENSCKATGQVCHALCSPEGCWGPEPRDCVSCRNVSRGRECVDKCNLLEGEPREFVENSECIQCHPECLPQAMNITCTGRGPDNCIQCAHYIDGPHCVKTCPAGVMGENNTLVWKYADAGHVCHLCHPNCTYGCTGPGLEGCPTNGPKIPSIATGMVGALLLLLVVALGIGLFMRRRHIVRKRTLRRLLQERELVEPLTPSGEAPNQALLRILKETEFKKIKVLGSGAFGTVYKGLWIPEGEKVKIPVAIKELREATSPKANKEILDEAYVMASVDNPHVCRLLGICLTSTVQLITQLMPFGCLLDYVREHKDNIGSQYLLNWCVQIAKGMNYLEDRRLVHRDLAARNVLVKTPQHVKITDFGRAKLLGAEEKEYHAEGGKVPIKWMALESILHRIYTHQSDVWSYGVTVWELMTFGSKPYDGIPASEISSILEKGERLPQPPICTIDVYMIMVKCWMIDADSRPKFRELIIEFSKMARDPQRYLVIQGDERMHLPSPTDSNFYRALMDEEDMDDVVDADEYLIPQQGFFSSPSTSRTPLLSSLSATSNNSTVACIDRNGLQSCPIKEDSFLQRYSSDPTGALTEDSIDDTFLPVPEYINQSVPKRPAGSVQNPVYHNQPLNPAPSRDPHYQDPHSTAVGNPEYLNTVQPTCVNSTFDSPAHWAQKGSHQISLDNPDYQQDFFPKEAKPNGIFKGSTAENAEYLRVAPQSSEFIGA
T2 sequence (P00533 with tags, fused parts or gaps DEL746-750 limits assumed): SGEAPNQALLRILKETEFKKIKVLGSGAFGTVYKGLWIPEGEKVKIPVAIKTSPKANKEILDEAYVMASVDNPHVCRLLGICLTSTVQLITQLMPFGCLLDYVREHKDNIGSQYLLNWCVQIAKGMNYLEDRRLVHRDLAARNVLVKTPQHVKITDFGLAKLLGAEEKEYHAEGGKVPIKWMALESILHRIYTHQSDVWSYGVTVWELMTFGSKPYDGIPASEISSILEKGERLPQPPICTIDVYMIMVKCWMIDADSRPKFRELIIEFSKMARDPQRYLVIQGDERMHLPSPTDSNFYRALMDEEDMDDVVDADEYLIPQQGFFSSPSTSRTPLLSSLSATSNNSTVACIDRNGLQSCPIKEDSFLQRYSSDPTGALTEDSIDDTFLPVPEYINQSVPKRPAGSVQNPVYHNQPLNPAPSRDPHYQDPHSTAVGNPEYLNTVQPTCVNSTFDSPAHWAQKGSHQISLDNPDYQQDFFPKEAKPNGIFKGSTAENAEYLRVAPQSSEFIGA

As to `CN1CCC(Oc2cc(-c3cnn(C(F)F)c3)cc3ncnc(Nc4ccc5ncsc5c4)c23)CC1` [Example 189, N-(7-(1-(difluoromethyl)-1H-pyrazol-4-yl)-5-((1-methylpiperidin-4-yl)oxy)quinazolin-4-yl)benzo[d]thiazol-6-amine], the IC50 in assay [1] was 10.1 to 50 nM; in assay [2], at most 10 nM; in assay [3], 10.1 to 50 nM.
On to `CC(C)(O)Cn1cc(-c2cc(OC3CCOCC3)c3c(Nc4ccc5ncsc5c4)ncnc3c2)cn1` [Example 190, 1-(4-(4-(benzo[d]thiazol-6-ylamino)-5-((tetrahydro-2H-pyran-4-yl)oxy)quinazolin-7-yl)-1H-pyrazol-1-yl)-2-methylpropan-2-ol], for which the IC50 in assay [1], in assay [2] and in assay [3] was at most 10 nM throughout.
Turning to `CC(C)n1cc(-c2cc(OC3CCOCC3)c3c(Nc4ccc5ncsc5c4)ncnc3c2)cn1` [Example 191, N-(7-(1-isopropyl-1H-pyrazol-4-yl)-5-((tetrahydro-2H-pyran-4-yl)oxy)quinazolin-4-yl)benzo[d]thiazol-6-amine], the IC50 in assay [1] was at most 10 nM; in assay [2], at most 10 nM; in assay [3], 10.1 to 50 nM.
As to `COC[C@@H](C)Oc1cc(N2CCN3CCC[C@@H]3C2)cc2ncnc(Nc3ccc4ncsc4c3)c12` [Example 192, N-(7-((R)-hexahydropyrrolo[1,2-a]pyrazin-2(1H)-yl)-5-(((R)-1-methoxypropan-2-yl)oxy)quinazolin-4-yl)benzo[d]thiazol-6-amine], the IC50 is at most 10 nM in assay [1], at most 10 nM in assay [2] and 10.1 to 50 nM in assay [3].
Turning to `C[C@@H]1CN(c2cc(O[C@H](C)C3COC3)c3c(Nc4ccc5ncsc5c4)ncnc3c2)C[C@H](C)O1` [Example 193, N-(7-((2S,6R)-2,6-dimethylmorpholino)-5-((R)-1-(oxetan-3-yl)ethoxy)quinazolin-4-yl)benzo[d]thiazol-6-amine], the IC50 in assay [1], in assay [2] and in assay [3] was at most 10 nM in each case.
Consider `CC(C)N1CCN(c2cc(OC3CCOCC3)c3c(Nc4ccc5ncsc5c4)ncnc3c2)C1=O` [Example 194, 1-(4-(benzo[d]thiazol-6-ylamino)-5-((tetrahydro-2H-pyran-4-yl)oxy)quinazolin-7-yl)-3-isopropylimidazolidin-2-one], for which the IC50 in assay [1], in assay [2] and in assay [3] was at most 10 nM each time.
Take `COC[C@@H](C)Oc1cc(N2CCNCC2)cc2ncnc(Nc3ccc4ncsc4c3)c12` [Example 195, (R)-N-(5-((1-methoxypropan-2-yl)oxy)-7-(piperazin-1-yl)quinazolin-4-yl)benzo[d]thiazol-6-amine]: the IC50 in assay [1] was at most 10 nM; in assay [2], at most 10 nM; in assay [3], 10.1 to 50 nM.
For `COC[C@@H](C)Oc1cc(N2CCN(CCO)CC2)cc2ncnc(Nc3ccc4ncsc4c3)c12` [Example 196, (R)-2-(4-(4-(benzo[d]thiazol-6-ylamino)-5-((1-methoxypropan-2-yl)oxy)quinazolin-7-yl)piperazin-1-yl)ethan-1-ol], the half-inhibitory concentration (IC50) in assay [1] is at most 10 nM; in assay [2], at most 10 nM; in assay [3], 10.1 to 50 nM.
As to `CO[C@H]1CCN(c2cc(O[C@H](C)C3COC3)c3c(Nc4ccc5ncsc5c4)ncnc3c2)C1` [Example 197, N-(7-((S)-3-methoxypyrrolidin-1-yl)-5-((R)-1-(oxetan-3-yl)ethoxy)quinazolin-4-yl)benzo[d]thiazol-6-amine], the IC50 in assay [1], in assay [2] and in assay [3] was at most 10 nM throughout.
Regarding `CO[C@@H]1CCN(c2cc(O[C@H](C)C3COC3)c3c(Nc4ccc5ncsc5c4)ncnc3c2)C1` [Example 198, N-(7-((R)-3-methoxypyrrolidin-1-yl)-5-((R)-1-(oxetan-3-yl)ethoxy)quinazolin-4-yl)benzo[d]thiazol-6-amine], the IC50 in assay [1], in assay [2] and in assay [3] was at most 10 nM throughout.
Regarding `c1nc(Nc2ccc3ncsc3c2)c2c(OC3CCOCC3)cc(N3CC4CC(C3)O4)cc2n1` [Example 199, N-(7-(6-oxa-3-azabicyclo[3.1.1]heptan-3-yl)-5-((tetrahydro-2H-pyran-4-yl)oxy)quinazolin-4-yl)benzo[d]thiazol-6-amine], the 50% inhibitory concentration (IC50) in assay [1] was at most 10 nM; in assay [2] it was at most 10 nM; in assay [3], 10.1 to 50 nM.
Regarding `COCCN1CCN(c2cc(O[C@H](C)COC)c3c(Nc4ccc5ncsc5c4)ncnc3c2)CC1` [Example 201, (R)-N-(7-(4-(2-methoxyethyl)piperazin-1-yl)-5-((1-methoxypropan-2-yl)oxy)quinazolin-4-yl)benzo[d]thiazol-6-amine], the IC50 in assay [1] was at most 10 nM; in assay [2], at most 10 nM; in assay [3], 10.1 to 50 nM.
For the compound `Cc1cn(-c2cc(O[C@H](C)C3COC3)c3c(Nc4ccc5ncsc5c4)ncnc3c2)c(=O)n1C` [Example 202, (R)-1-(4-(benzo[d]thiazol-6-ylamino)-5-(1-(oxetan-3-yl)ethoxy)quinazolin-7-yl)-3,4-dimethyl-1,3-dihydro-2H-imidazol-2-one], the IC50 in assay [1], in assay [2] and in assay [3] was at most 10 nM each time.
In the case of `Cc1cn(-c2cc(OC(C)CN(C)C)c3c(Nc4ccc5ncsc5c4)ncnc3c2)c(=O)n1C` (stereo not drawn) [Example 203, 1-(4-(benzo[d]thiazol-6-ylamino)-5-((1-(dimethylamino)propan-2-yl)oxy)quinazolin-7-yl)-3,4-dimethyl-1,3-dihydro-2H-imidazol-2-one], the IC50 was 10.1 to 50 nM in assay [1], at most 10 nM in assay [2] and 10.1 to 50 nM in assay [3].
Regarding `C[C@@H](Oc1cc(N2CC3(COC3)C2)cc2ncnc(Nc3ccc4ncsc4c3)c12)C1COC1` [Example 204, (R)-N-(5-(1-(oxetan-3-yl)ethoxy)-7-(2-oxa-6-azaspiro[3.3]heptan-6-yl)quinazolin-4-yl)benzo[d]thiazol-6-amine], the IC50 in assay [1], in assay [2] and in assay [3] was at most 10 nM throughout.
Consider `CN1CCC(n2cc(-c3cc(F)c4c(Nc5ccc6ncsc6c5F)ncnc4c3)cn2)CC1` [Example 227, 7-fluoro-N-(5-fluoro-7-(1-(1-methylpiperidin-4-yl)-1H-pyrazol-4-yl)quinazolin-4-yl)benzo[d]thiazol-6-amine], for which the values for the IC50 in assay [1], in assay [2] and in assay [3] were at most 10 nM, at most 10 nM and 10.1 to 50 nM, respectively.
Consider `COc1cc2ncnc(Nc3ccc4ncsc4c3F)c2cc1-c1cnn(C2CCN(C)CC2)c1` [Example 240, 7-fluoro-N-(7-methoxy-6-(1-(1-methylpiperidin-4-yl)-1H-pyrazol-4-yl)quinazolin-4-yl)benzo[d]thiazol-6-amine], for which the IC50 in assay [1], in assay [2] and in assay [3] was at most 10 nM throughout.
For `COc1cc2ncnc(Nc3ccc4ncsc4c3)c2cc1-c1cnn(CC2CCN(C)CC2)c1` [Example 242, N-(7-methoxy-6-(1-((1-methylpiperidin-4-yl)methyl)-1H-pyrazol-4-yl)quinazolin-4-yl)benzo[d]thiazol-6-amine], the IC50 was at most 10 nM in assay [1], at most 10 nM in assay [2] and 10.1 to 50 nM in assay [3].
